Test results: US20090247599A1, “METHODS OF TREATING CELL PROLIFERATIVE DISORDERS USING A COMPRESSED TEMOZOLOMIDE DOSING SCHEDULE” (Schering Corporation, priority 2005, published 2009)

Key:
[1] = test system: LOX human melanoma xenograft tumors; experiment: LOX xenograft tumor growth in SCID mice; type: in vivo; settings: i.p., 72 mg/kg total dose
Description: (§1) In brief, female athymic nude mice or female SCID mice (4-6 week old) from Charles River Laboratories were maintained in a VAF-barrier facility. Animal procedures were performed in accordance with the rules set forth in the N.I.H. guide for the care and use of laboratory animals.
(§2) DAOY human medulloblastoma cells (5×10^6), U373 human glioma cells (5×10^6), LOX human melanoma cells (5×10^5), and A375 human melanoma cells (5×10^6) were inoculated subcutaneously in the right flank of the animal (LOX in SCID mice; DAOY, U373, and A375 in nude mice). To facilitate in vivo growth, Matrigel was mixed with DAOY and A375 cells (50%) before inoculation. When tumor volumes were approximately 100 mm^3, animals were randomized and grouped (n=10 LOX, DAOY, and A375; n=9 U373). Tumor volumes and body weight were measured twice weekly using Labcat™ computer application (Innovative Programming Associates, N.J.). Tumor volumes were calculated by the formula (W×L×H)×π×⅙. TMZ was administered by intraperitoneal injections with 20% HPβCD (containing 1% DMSO) as vehicle.
Mice bearing xenograft tumors of LOX human melanoma cells, a low MGMT level cell line, were treated with TMZ using two different schedules. The same total dose was administered evenly divided over the course of either: (i) 4 or (ii) 12 days. […]

[2] = test system: U373 human glioma xenograft tumors; experiment: U373 xenograft tumor growth in nude mice; type: in vivo; settings: i.p.
Description: as §1, §2
Mice bearing xenograft tumors of U373 human glioma cells, a high MGMT level cell line, were treated with TMZ for 5 consecutive days (day 1 through day 5) over a cycle that is at least a 28-day cycle. […]

Cn1nnc2c(C(N)=O)ncn2c1=O [TMZ, 3,4-dihydro-3-methyl-4-oxoimidazo[5,1-d]-as-tetrazine-8-carboxamide]
TGI ([1]; 4-day treatment schedule (Day 1-4)): 88% | TGI ([1]; 12-day schedule (Day 1-12)): 50% | TGI ([2]; 35 mg/kg for 5 consecutive days (175 mg/kg total)): 100% | TGI ([2]; 70 mg/kg for 5 consecutive days (350 mg/kg total)): 113%
